One compound from US20250352477A1, “FORMULATIONS AND ORAL DOSAGE FORMS OF LIPOPHILIC AGENTS” (CANNBIOREX PHARMA LTD, priority 2022, published 2025) can be followed below.

Read-outs that look alike come from different tables or passages of the source.

A short description of this data set: Pharmacokinetic study of LPNF-CBD formulations in freely moving rat model. It counts as in vivo. The settings on record: CBD 15 mg/kg; for half-life: read-out: Elimination half-life (converted). The protocol:
For pharmacokinetic analysis of LPNF-CBD powders, male Wistar rats were tested in […] groups: a control group received LPNF-CBD prepared as in EXAMPLE 2 (N=5) with CBD concentration 2 mg/mL, administered by oral gavage; experimental groups received LPNF-CBD Polypore or Neusilin US2 powders dispersed in water (N=4 and N=5, respectively) with LPNF-CBD concentration of 20 mg/ml, administered by oral gavage; control groups received CBD in propylene glycol:ethanol:water (4.5:4.5:1 v/v) with CBD concentration of 3 mg/mL, administered by oral gavage or intravenously (N=5 and N=3, respectively). In all groups, the administered CBD dose was 15 mg/kg. For pharmacokinetic (PK) studies, blood samples (0.35 mL) were taken at 0, 0.3 h, 0.6 h, 1 h, 1.5 h, 2 h, 3 h, 4 h and 6 h time points. Plasma was separated by centrifugation and stored frozen until LCMS analysis.
PK study was conducted in the freely moving rat model (in-vivo) in five groups of animals receiving: (1) CBD in propylene glycol:ethanol:water solution; (2) LPNF-CBD, (3) LPNF-CBD Polypore and (4) LPNF-CBD Neusilin powders dispersed in water; all administered by oral gavage; and (5) CBD in propylene glycol:ethanol:water solution administered IV.

Setting [1] is: male, Wistar, in vivo, oral gavage.

One may read the half-life as how long it takes for the measured level to halve. What is called AUC is the area under the concentration-time curve, a measure of exposure. With `C=C(C)[C@@H]1CCC(C)=C[C@H]1c1c(O)cc(CCCCC)cc1O` [CBD, Cannabidiol], the Liner terminal slope (IV) worked out at 0.2 h⁻¹ and the Liner terminal slope (oral gavage) came to 0.2 h⁻¹. Moreover, the half-life (male, Wistar, in vivo, IV) is 4.1 h and the half-life under setting [1] was 3.2 h. The compound also showed an AUC under setting [1] of 158 ng·h/mL.
